Consider four compounds from US20040077563A1, “Methods of drug delivery to hepatocytes and treatment of flaviviridae infections” (priority 2003, published 2004).

Data set [1] deals with Hep3B, HepG2 & Huh7 cell lines. Briefly: Uptake of [3H]-labeled nucleosides by different human liver cell lines. The format is cell-based. The settings on record: for nucleoside uptake into hepatocytes (radioactivity in the cell lysate): Hep3B, HepG2, Huh7, 20 μCi/ml [3H]-nucleoside plus 10 μM cold nucleoside, 4 hr at 37° C, FIG. 1. How it is done: In order to determine whether Ribavirin and Viramidine™ use a similar mode of entry in human hepatocytes, the inventors performed several experiments. First, various strains of hepatocytes (Hep3B, HepG2, and Huh7) were incubated with various nucleotide analogs (e.g., Ribavirin, Levovirin (the L-isomer of Ribavirin), and Viramidine™), and the result of the nucleoside uptake experiments are illustrated in FIG. 1.
Hep3B, HepG2 & Huh7 cell lines were used at a concentration of 50,000 cells/well in a 24-wells plate, and incubated with [^3H]-labeled Ribavirin, Levovirin™, and Viramidine™ (20 μCi/ml) plus 10 μM cold nucleoside for 4 hr at 37° C. The cells were washed with PBS and lysed, and the radioactivity in the cell lysate (i.e.the amount of labeled nucleoside taken up by the cells) was determined in a scintillation counter.

A short description of the next data set: Water solubility. The format is physicochemical. An excerpt: It is contemplated that Viramidine™*HCl (in either D- or L-configuration) will be administered in any appropriate pharmaceutical formulation, and under any appropriate protocol. Thus, administration may take place orally, parenterally (including subcutaneous injections, intravenous, intramuscularly, by intrasternal injection or infusion techniques), by inhalation spray, or rectally, topically and so forth, and in dosage unit formulations containing conventional non-toxic pharmaceutically acceptable carriers, adjuvants and vehicles. By way of example, it is contemplated that Viramidine™*HCl can be formulated in admixture with a pharmaceutically acceptable carrier. For example, Viramidine™*HCl can be administered orally as pharmacologically acceptable salts. […] Conventional buffers such as phosphates, bicarbonates or citrates can be used for this purpose. Of course, one of ordinary skill in the art may modify the formulations within the teachings of the specification to provide numerous formulations for a particular route of administration without rendering Viramidine™*HCl unstable or compromising their therapeutic activity. In particular, the modification of Viramidine™*HCl to render it more soluble in water or another vehicle, for example, may be easily accomplished by minor modifications (salt formulation, esterification, etc.) that are well within the ordinary skill in the art. […]

For a further data set, the system named is flaviviridae. Briefly: Inhibition of growth of flaviviridae in a cell containing medium. The note with it: added to a cell-containing medium; data not shown. The format is cell-based. The text has this: The family of flaviviridae has recently gained special attention due to several occurrences of West Nile Virus encephalitis in the eastern part of the USA, resulting in at least 7 reported deaths and at least 62 cases of severe disease. Moreover, hepatitis C-like viruses (and the HCV virus) also belong to the family of flaviviridae, further adding to the significance of flaviviridae with respect to public and private health. While not wishing to be bound by a particular theory or hypothesis, it is contemplated that increased transport of Viramidine™*HCl is particularly beneficial for treatment of flaviridae-virus infections.

Data set [2] deals with erythrocytes. The settings on record: stated as known for Ribavirin; cited from earlier work.
The next data set relates to HepG2 cells. Put plainly: Nucleoside competition assay. The format is cell-based, human. The note with it: cold competitor 0, 100 μM, 500 μM, 2 mM, 2 hrs at 37° C. How it is done: To address this question, the inventors performed uptake competition experiments in which radiolabeled Ribavirin or Viramidine™ competed for uptake with unlabeled Viramidine™ or Ribavirin, respectively.
50,000 HepG2 cells/well were placed in a 24-wells plate and incubated with [3H]-labeled nucleoside (20 μCi/ml). Competition was performed with increasing concentrations of cold (0, 100 μM, 500 μM, and 2 mM) competitor nucleoside. Incubation time was 2 hrs at 37° C. The cells were then washed with PBS and lysed. The radioactivity in the cell lysate (i.e. the amount of labeled nucleoside taken up by the cells) was determined in a scintillation counter.

Data set [3] has as its system erythrocytes. Put plainly: Uptake into erythrocytes. The format is cell-based. The settings on record: data not shown. The text has this:
Thus, it should be appreciated that toxicity of a nucleoside or nucleotide compound can be reduced by modifying the compound to include a carboxamidine moiety or modified carboxamidine moiety as described above, wherein target cells for modified compounds include a transporter system, which non-target cells lack. […] It is contemplated that this difference in uptake is attributable to the lack of a Viramidine™ uptake and/or transporter system.

Data set [4] deals with deaminase/deamidase activity in hepatocytes. Briefly: Conversion of carboxamidine to carboxamide in the liver. The format is in vitro ADME. The settings on record: unpublished results. The text has this: Therefore, it is contemplated that by including a carboxamidine group to a molecule and exploiting the relatively high deaminase/deamidase acitivity of hepatocytes, molecules may be specifically targeted to the liver. With respect to contemplated molecules having a —C(NR1)(NR2R3) it should be appreciated that various deaminase/deamidase acitivities of hepatocytes are sufficiently high to convert such compounds from a prodrug form into an active drug form (e.g., drug activity is increased when carboxamide group is present).

Consider `NC(=O)c1ncn([C@H]2O[C@@H](CO)[C@H](O)[C@@H]2O)n1` [Levovirin, reference compound], for which the “nucleoside uptake into hepatocytes (radioactivity in the cell lysate)” value (from here on “nucleoside uptake into hepatocytes”) in data set [1] is “taken up into all of the tested hepatocytes”.
In the case of `Cl.N=C(N)c1ncn([C@@H]2O[C@H](CO)[C@@H](O)[C@H]2O)n1` [Viramidine™*HCl, 1-beta-D-ribofuranosyl-1,2,4-triazole-3-carboxamidine*HCl], in the data set “Water solubility”, the water solubility entry is recorded as “mostly water soluble”. Further, the “inhibition of growth of flaviviridae” value in the data set with flaviviridae is “can be inhibited”.
Consider `NC(=O)c1ncn([C@@H]2O[C@H](CO)[C@@H](O)[C@H]2O)n1` [Ribavirin, 1-beta-D-ribofuranosyl-1,2,4-triazole-3-carboxamide, reference compound], for which the “uptake into erythrocytes (background statement)” value in the data set with erythrocytes [2] is recorded as “readily taken up by erythrocytes”. Besides, in data set [1], the “nucleoside uptake into hepatocytes” value is on record as “more efficiently taken up over the L-isomer of Ribavirin”. Further, the “competition of [3H]-Viramidine uptake by unlabeled competitor” value in the data set with HepG2 cells (FIG. 3) is listed as “at least partial competition”.
Consider `N=C(N)c1ncn([C@@H]2O[C@H](CO)[C@@H](O)[C@H]2O)n1` [Viramidine™, 1-beta-D-ribofuranosyl-1,2,4-triazole-3-carboxamidine], for which, in the data set on erythrocytes [3], the uptake into erythrocytes entry is reported as “not taken up into erythrocytes”. The “nucleoside uptake into hepatocytes” value in data set [1] is “taken up to a significantly higher degree in all three cell lines”. The “rate of uptake into, and overall concentration in, hepatocytes as compared to Ribavirin” value in data set [1] (hepatocytes) is recorded as “significantly higher”. Moreover, the “competition of [3H]-Ribavirin uptake by unlabeled competitor” value in the data set on HepG2 cells (FIG. 2) was “at least partial competition”. In data set [4], the “conversion in the liver” value is reported as “converted in the liver to Ribavirin”.
